Measurements from patent publication US20260285857A1, “BICYCLIC AND HETEROCYCLIC AMIDE COMPOUNDS” (priority 2024, published 2026).

Test system: immunoglobulin light chain protein WIL-FL T46L
Experiment: Differential scanning fluorimetry (thermal shift) assay
Type: binding
Settings: temperature shift [Tm]compound-[Tm]vehicle, recombinant WIL-FL T46L

Compound	DSF (Table A)	DSF (Table B)
Cc1cc(N2CC3(CCC3c3ccccc3)C2)cn2nc(C(=O)N3C[C@@H]4CN(c5cccc(C(=O)O)n5)C[C@@H]4C3)nc12 (some centres unmarked) [Compound 291]	***** (>2.5° C.=*****)	–
Cc1cc(N2CC[C@](C)(c3ccccc3)C2)cn2nc(C34CC(CO)(C3)C(C)(C)O4)nc12 [Compound 473, (R)-(3,3-dimethyl-1-(8-methyl-6-(3-methyl-3-phenylpyrrolidin-1-yl)-[1,2,4]triazolo[1,5-a]pyridin-2-yl)-2-oxabicyclo[2.1.1]hexan-4-yl)methanol]	–	***** (>2.5° C.=*****)
Cc1cc(N2CC[C@](C)(c3ccccc3)C2)cn2nc(C34CC(CO3)C4N3CCOCC3)nc12 (stereo partly drawn) [Compound 527, 4-(1-(8-methyl-6-((R)-3-methyl-3-phenylpyrrolidin-1-yl)-[1,2,4]triazolo[1,5-a]pyridin-2-yl)-2-oxabicyclo[2.1.1]hexan-5-yl)morpholine]	–	***** (>2.5° C.=*****)
Cc1cc(N2CC[C@](C)(c3ccccc3)C2)cn2nc(C(=O)NC3CC4(C3)CN(C(=O)C3CC(C)(C(=O)O)C3)C4)nc12 (some centres unmarked) [Compound 680]	–	***** (>2.5° C.=*****)
Cc1cc(N2CC[C@](C)(c3ccccc3)C2)cn2nc(C34CC(COCC(=O)O)(CO3)C4)nc12 [Compound 459, 2-[[1-[8-methyl-6-[(3R)-3-methyl-3-phenyl-pyrrolidin-1-yl]-[1,2,4]triazolo[1,5-a]pyridin-2-yl]-2-oxabicyclo[2.1.1]hexan-4-yl]methoxy]acetic acid]	–	***** (>2.5° C.=*****)
Cc1cc(N2CCC(NC(=O)c3nc4c(C)cc(N5CC[C@](C)(c6ccccc6)C5)cn4n3)CC2)cc(C(=O)O)n1 [Compound 251]	***** (>2.5° C.=*****)	–
Cc1cccc([C@@]2(C)CCN(c3cc(C)c4nc(C(=O)N5C[C@@H]6CN(c7cccc(C(=O)O)n7)C[C@@H]6C5)nn4c3)C2)c1 [Compound 415]	***** (>2.5° C.=*****)	–
COC(=O)C1C2CN(C3CCC34CC(NC(=O)c3nc5c(C)cc(N6CC[C@](C)(c7ccccc7)C6)cn5n3)C4)CC21 (some centres unmarked) [Compound 372]	***** (>2.5° C.=*****)	–
Cc1cc(N2CC[C@](C)(c3ccccc3)C2)cn2nc(C34CC(CO3)C4C(=O)NCC(C)(C)O)nc12 (some centres unmarked) [Compound 71]	***** (>2.5° C.=*****)	–
Cc1cc(N2CC[C@@](C)(n3ccc(C(F)(F)F)n3)C2)cn2nc(C(=O)N3CC[C@@]4(CCN(c5cccc(C(=O)O)n5)C4)C3)nc12 [Compound 741]	–	***** (>2.5° C.=*****)
Cc1cc(N2CC[C@](C)(c3ccccc3)C2)cn2nc(C(=O)NC3CCC(F)(F)C3)nc12 (some centres unmarked) [Compound 154]	***** (>2.5° C.=*****)	–
Cc1cc(N2CC[C@](C)(c3ccccc3)C2)cn2nc(C(=O)NC3CCC34CC(OCC(=O)O)C4)nc12 (stereo partly drawn) [Compound 677, 2-[7-[[8-methyl-6-[(3R)-3-methyl-3-phenyl-pyrrolidin-1-yl]-[1,2,4]triazolo[1,5-a]pyridine-2-carbonyl]amino]spiro[3.3]heptan-2-yl]oxyacetic acid]	–	***** (>2.5° C.=*****)
Cc1cc(N2CC[C@](C)(c3ccccc3)C2)cn2nc(C34CC(N)(CO3)C4CO)nc12 (stereo partly drawn) [Compound 4, (4-amino-1-(8-methyl-6-((R)-3-methyl-3-phenylpyrrolidin-1-yl)-[1,2,4]triazolo[1,5-a]pyridin-2-yl)-2-oxabicyclo[2.1.1]hexan-5-yl)methanol]	***** (>2.5° C.=*****)	–
Cc1cc(N2CC[C@](C)(c3cccc(F)c3)C2)cn2nc(C(=O)N3CC[C@@]4(CCN(c5cccc(C(=O)O)n5)C4)C3)nc12 [Compound 755]	–	***** (>2.5° C.=*****)
Cc1cc(N2CC(C)(c3ccccc3)C2)cn2nc(C(=O)N3C[C@@H]4CN(c5cccc(C(=O)O)n5)C[C@@H]4C3)nc12 [Compound 399]	***** (>2.5° C.=*****)	–
Cc1cc(N2CC[C@](C)(c3ccccc3)C2)cn2nc(C34CC(CO)(CO3)C4c3nnn(C)n3)nc12 (some centres unmarked) [Compound 570, (5-(2-methyl-2 h-tetrazol-5-yl)-1-(8-methyl-6-((r)-3-methyl-3-phenylpyrrolidin-1-yl)-[1,2,4]triazolo[1,5-a]pyridin-2-yl)-2-oxabicyclo[2.1.1]hexan-4-yl)methanol]	–	***** (>2.5° C.=*****)
Cc1cc(N2CC[C@](C)(c3ccccc3)C2)cn2nc(C(=O)N3CCC4(CCN(c5cnnc(C(=O)O)c5)C4)C3)nc12 (stereo partly drawn) [Compound 730, 5-(7-(8-methyl-6-((R)-3-methyl-3-phenylpyrrolidin-1-yl)-[1,2,4]triazolo[1,5-a]pyridine-2-carbonyl)-2,7-diazaspiro[4.4]nonan-2-yl)pyridazine-3-carboxylic acid]	–	***** (>2.5° C.=*****)
Cc1cc(N2CC[C@](C)(c3ccccc3)C2)cn2nc(C(=O)NC3CC4(C3)CN(c3ccnc(O)c3)C4)nc12 [Compound 223]	***** (>2.5° C.=*****)	–
Cc1cc(N2CC[C@](C)(c3ccccc3)C2)cn2nc(C34CC(CO3)C4N3C(=O)NC(=O)C3(C)C)nc12 (some centres unmarked) [Compound 79]	***** (>2.5° C.=*****)	–

Compound	DSF (Table A)	DSF (Table B)
Cc1cc(N2CC[C@](C)(c3ccccc3)C2)cn2nc(C(=O)N3CCn4nc(-c5cccc(C(=O)O)n5)nc4C3)nc12 [Compound 404]	***** (>2.5° C.=*****)	–
Cc1cc(N2CC[C@](C)(c3ccccc3)C2)cn2nc(C34CC(CO3)C4c3nc(N)nn3C(=O)C3CC(C)(C(=O)O)C3)nc12 (some centres unmarked) [Compound 556]	–	***** (>2.5° C.=*****)
Cc1cc(N2CC[C@](C)(c3ccccc3)C2)cn2nc(C34CC(CO3)C4c3nc(NS(=O)(=O)CC(C)(C)C(=O)O)n[nH]3)nc12 (some centres unmarked) [Compound 564]	–	***** (>2.5° C.=*****)
Cc1cc(N2CC[C@](C)(c3ccccc3)C2)cn2nc(C34CC(CO3)C4C(C)(C)O)nc12 (some centres unmarked) [Compound 73]	***** (>2.5° C.=*****)	–
Cc1cc(N2CC[C@](C)(c3ccccc3)C2)cn2nc(C(=O)N3CC[C@@]4(CCN(C(=O)CC(C)(O)C(=O)O)C4)C3)nc12 (stereo partly drawn) [Compound 731, 2-hydroxy-2-methyl-4-[(5R)-2-[8-methyl-6-[(3R)-3-methyl-3-phenyl-pyrrolidin-1-yl]-[1,2,4]triazolo[1,5-a]pyridine-2-carbonyl]-2,7-diazaspiro[4.4]nonan-7-yl]-4-oxo-butanoic acid]	–	***** (>2.5° C.=*****)
CCC1(c2ccccc2)CN(c2cc(CO)c3nc(C(=O)NC)nn3c2)C1 [Compound 391]	***** (>2.5° C.=*****)	–
Cc1nc(C2C3(c4nc5c(C)cc(N6CC[C@](C)(c7ccccc7)C6)cn5n4)CC2(C(C)(C)O)CO3)n[nH]1 (mixture of isomers) [Compound 3, 2-[1-[8-methyl-6-[rac-(3R)-3-methyl-3-phenyl-pyrrolidin-1-yl]-[1,2,4]triazolo[1,5-a]pyridin-2-yl]-5-(5-methyl-1H-1,2,4-triazol-3-yl)-2-oxabicyclo[2.1.1]hexan-4-yl]propan-2-ol]	***** (>2.5° C.=*****)	–
Cc1cc(N2CC[C@](C)(c3ccccc3)C2)cn2nc(C34CC(C(=O)NC(C)(C)C(=O)O)(CO3)C4)nc12 [Compound 440, (R)-2-methyl-2-(1-(8-methyl-6-(3-methyl-3-phenylpyrrolidin-1-yl)-[1,2,4]triazolo[1,5-a]pyridin-2-yl)-2-oxabicyclo[2.1.1]hexane-4-carboxamido)propanoic acid]	–	***** (>2.5° C.=*****)
Cc1cc(N2CC3(CC(NC(=O)c4nc5c(C)cc(N6CC[C@](C)(c7ccccc7)C6)cn5n4)C3)C2)cc(C(=O)O)n1 [Compound 272]	***** (>2.5° C.=*****)	–
Cc1cc(N2CC[C@](C)(c3ccccc3)C2)cn2nc(C(=O)N3CCC4(CCC(O)(c5cccc(C(=O)O)n5)C4)C3)nc12 (stereo partly drawn) [Compound 670, 6-[8-hydroxy-2-[8-methyl-6-[(3R)-3-methyl-3-phenyl-pyrrolidin-1-yl]-[1,2,4]triazolo[1,5-a]pyridine-2-carbonyl]-2-azaspiro[4.4]nonan-8-yl]pyridine-2-carboxylic acid]	–	***** (>2.5° C.=*****)
Cc1cc(N2CC[C@](C)(c3ccccc3)C2)cn2nc(C(=O)N3CC4(O)CC3C4)nc12 [Compound 146]	***** (>2.5° C.=*****)	–
Cc1cc(N2CCC(C)(C3CC4(CC4)C3)C2)cn2nc(C(=O)N3C[C@@H]4CN(c5cccc(C(=O)O)n5)C[C@@H]4C3)nc12 (stereo partly drawn) [Compound 23, 6-((3aR,6aS)-5-(8-methyl-6-(3-methyl-3-(spiro[2.3]hexan-5-yl)pyrrolidin-1-yl)-[1,2,4]triazolo[1,5-a]pyridine-2-carbonyl)hexahydropyrrolo[3,4-c]pyrrol-2(1H)-yl)picolinic acid]	**** (>1.5-2.5° C.=****)	–
CCS(=O)(=O)Nc1n[nH]c(C2C3COC2(c2nc4c(C)cc(N5CC[C@@](C)(n6ccc(C(F)(F)F)n6)C5)cn4n2)C3)n1 (some centres unmarked) [Compound 563]	–	**** (>1.5-2.5° C.=****)
Cc1cc(N2CC[C@](C)(c3ccccc3)C2)cn2nc(C(=O)N3CC4CCN(c5cccc(C(=O)O)n5)CC43)nc12 (some centres unmarked) [Compound 629]	–	***** (>2.5° C.=*****)
Cc1cc(N2CC[C@](C)(c3ccccc3)C2)cn2nc(C(=O)NC3CN(c4cccc(C(=O)O)n4)C4(COC4)C3)nc12 (stereo partly drawn) [Compound 664, 6-[7-[[8-methyl-6-[(3R)-3-methyl-3-phenyl-pyrrolidin-1-yl]-[1,2,4]triazolo[1,5-a]pyridine-2-carbonyl]amino]-2-oxa-5-azaspiro[3.4]octan-5-yl]pyridine-2-carboxylic acid]	–	***** (>2.5° C.=*****)
Cc1cc(N2CC[C@](C)(n3ccc(C(F)(F)F)n3)C2)cn2nc(C(=O)N3CC[C@@]4(CCN(c5cccc(C(=O)O)n5)C4)C3)nc12 [Compound 742]	–	***** (>2.5° C.=*****)
Cc1nc(C2C3(CNS(=O)(=O)CC(C)(C)C(=O)O)COC2(c2nc4c(C)cc(N5CC[C@](C)(c6ccccc6)C5)cn4n2)C3)n[nH]1 (stereo partly drawn) [Compound 584, 2,2-dimethyl-3-(N-((5-(5-methyl-11H-1,2,4-triazol-3-yl)-1-(8-methyl-6-((R)-3-methyl-3-phenylpyrrolidin-1-yl)-[1,2,4]triazolo[1,5-a]pyridin-2-yl)-2-oxabicyclo[2.1.1]hexan-4-yl)methyl)sulfamoyl)propanoic acid]	–	***** (>2.5° C.=*****)
C[C@]1(c2ccccc2)CCN(c2cc(CO)c3nc(C45CC(CO4)C5CO)nn3c2)C1 (some centres unmarked) [Compound 489]	–	***** (>2.5° C.=*****)
Cc1n[nH]c(C2C3COC2(c2nc4c(C)cc(N5CC[C@](C)(c6ccccc6)C5)cn4n2)C3)n1 (some centres unmarked) [Compound 74]	***** (>2.5° C.=*****)	–
